Reference: paper PMC10758095, “Selectively targeting BCL6 using a small molecule inhibitor is a potential therapeutic strategy for ovarian cancer” (International Journal of Biological Sciences, 2024)

Biological target: T1, BCL6 (Homo sapiens, UniProt P41182)
T1 construct: BTB domain
Experiment: SPR (also HTRF BCL6-BTB/SMRT disruption)
Assay type: binding

How did the Kd turn out when `C[C@@H]1CN(c2ncc(F)c(Nc3ccc4oc(=O)ccc4c3)n2)C[C@H](C)N1` [WK369] was run?
The Kd was 2.24 µM.
